≈ marks a conversion by molar mass, not a printed value. Structures can show the parent of a compound that is named as a salt. Where two headings read alike, the source gives them in different places.
Legend:
Assay type in all cases: cell-based
[1] = system: erythrocytes; assay: Haemolytic activity of soluble samples
Protocol: Blood from three donors is mixed and centrifuged (10 min, 1000 g, 4° C.). The erythrocytes obtained are washed three times with NaCl solution (150 mmol·l^−1) and then used for experiments. Sample stock solutions are prepared in DMSO so that the final concentration of DMSO in NaCl is 0.5% (v/v). NaCl solution with the appropriate volume of DMSO serves as the negative control. 1% Triton-X100 is the positive control. The erythrocytes obtained are diluted to 2% with NaCl solution and pipetted into Eppendorf tubes (250 μl) with constant stirring. Samples and positive and negative controls are added to the erythrocytes prepared in this way and incubated (3 hours, 37° C.). The tubes are stirred during the incubation. After centrifugation (5 min, 1000 g), haemolytic activity is monitored by haemoglobin determination. The HC50 value is calculated from the measured absorbance values. The test is performed in triplets in three independent replicates. Iron Fe^2+ in haemoglobin is oxidized with potassium ferricyanide to iron Fe^3+ in methaemoglobin, which produces stable cyanomethaemoglobin with potassium cyanide, the concentration of which is determined spectrophotometrically. After the incubation of the erythrocytes with the substances, the cells are centrifuged (5 min, 1000 g), then Drabkin's solution (200 μl) is added to the supernatant (40 μl) and after incubation (10 min), the absorbance at 540 nm is measured.

[2] = system: Candida albicans ATCC 90028 = CCM 8161; assay: MIC, microdilution method
[3] = system: Pseudomonas aeruginosa R; assay: MIC, microdilution method
Protocol: (§1) Disposable microtiter plates are used for testing. Samples are dissolved in infusion medium from brain and heart (BHI, HiMedia Laboraties Pvt. Ltd., Czech Republic) and Mueller-Hinton broth (HiMedia Laboraties, see above) to a final concentration ranging from 200 μg/ml to 1.5625 μg/ml. Plates are inoculated with a standard amount of test bacteria—the density of the inoculum in the well corresponds to 10^5-6 CFU/ml (colony forming units/ml, i.e. the number of viable bacterial cells/ml). MIC values are read after 24/48 hours of incubation at 37° C. as the minimum inhibitory concentration of the test substance at which bacterial growth is inhibited. The minimum bactericidal concentration (MBC) is characterized as the minimum concentration of the sample required to achieve irreversible inhibition, i.e. to kill the bacteria after a defined incubation period. MBC is determined by the inoculation method. Using an applicator, 10 μl from the well of a microtiter plate with a defined concentration of the test substance is taken to inoculate the surface of blood agar (Trios, Czech Republic). MBC is determined as the lowest concentration that inhibits the visible growth of the bacterium used on agar.

[4] = system: Enterobacter kobei 3683; assay: MIC, microdilution method
Protocol: as §1

[5] = system: Staphylococcus epidermidis CCM 7221; assay: MIC, microdilution method
Protocol: as §1

[6] = system: Escherichia coli ATCC 25922 = CCM 3954; assay: MIC, microdilution method
Protocol: as §1

[7] = system: Staphylococcus aureus 4591; assay: MIC, microdilution method
Protocol: as §1

[8] = system: Staphylococcus aureus ATCC 29213 = CCM 4223; assay: MIC, microdilution method
Protocol: as §1

[9] = system: Enterococcus faecium 419/ANA; assay: MIC, microdilution method
Protocol: as §1

[10] = system: Escherichia coli CE5556; assay: MIC, microdilution method
Protocol: as §1

[11] = system: Pseudomonas aeruginosa ATCC 27853 = CCM 3955; assay: MIC, microdilution method
Protocol: as §1

[12] = system: Enterococcus faecalis ATCC 29212 = CCM 4224; assay: MIC, microdilution method
Protocol: as §1

[13] = Staphylococcus epidermidis, CCM7221

| Molecule | HC50 ± SD [1] | MIC ([2]; Candida albicans) [µg/mL] | MIC ([3]; Pseudomonas aeruginosa) [µg/mL] | MIC ([4]; Enterobacter kobei, 3683) [µg/mL] | MIC [5, 13] [µg/mL] | MIC ([6]; Escherichia coli) [µg/mL] | MIC ([7]; Staphylococcus aureus, 4591) [µg/mL] | MIC ([8]; Staphylococcus aureus) [µg/mL] | MIC ([9]; Enterococcus faecium, 419/ANA) [µg/mL] | MIC ([10]; Escherichia coli, CE5556) [µg/mL] | MIC ([11]; Pseudomonas aeruginosa) [µg/mL] | MIC ([12]; Enterococcus faecalis) [µg/mL] | other results |
| --- | --- | --- | --- | --- | --- | --- | --- | --- | --- | --- | --- | --- | --- |
| Dihexyl tetradecan-1,14-diyl bis((2-(bis(3-aminopropyl)amino)ethyl)-phosphonate) tetrahydrochloride [Example 54] | >100 |  |  |  |  |  |  |  |  |  |  |  | MIC [2]: 16 µg/mL; MIC ([3]; 24/48 hours at 37° C.): 8 µg/mL; MIC [4]: >128 µg/mL; MIC [5]: 0.5 µg/mL; MIC [6]: 4 µg/mL; MIC [7]: 1 µg/mL; MIC [8]: 1 µg/mL; MIC [9]: 64 µg/mL; MIC [10]: 16 µg/mL; MIC [11]: 8 µg/mL; MIC [12]: 8 µg/mL |
| CC(C)COP(=O)(CCN(CCCN)CCCN)OCCCCCCCCCCCCCCOP(=O)(CCN(CCCN)CCCN)OCC(C)C (stereo not drawn) [Example 51, Tetradecane-1,14-diyl diisobutyl bis((2-(bis(3-aminopropyl)amino)ethyl)-phosphonate) hexahydrochloride] | >100 | 32 | 4 | 64 | 0.5 | 16 | 2 | 2 | 16 | 32 | 4 | 4 |  |
| NCCCN(CCCN)CCP(=O)(OCCCCCCCCCCCCOP(=O)(CCN(CCCN)CCCN)OCCc1ccccc1)OCCc1ccccc1 (stereo not drawn) [Example 50] | >100 | 4 (≈ 4.69 µM) | 2 (≈ 2.34 µM) | 8 (≈ 9.38 µM) | 0.5 (≈ 0.586 µM) | 16 (≈ 18.8 µM) | 1 (≈ 1.17 µM) | 2 (≈ 2.34 µM) | 2 (≈ 2.34 µM) | 2 (≈ 2.34 µM) | 4 (≈ 4.69 µM) | 4 (≈ 4.69 µM) |  |
| CC(C)COP(=O)(CCN(CCCN)CCCN)OCCCCCCCCCCOP(=O)(CCN(CCCN)CCCN)OCC(C)C (stereo not drawn) [Example 40, Diisobutyl decane-1,10-diyl bis((2-(bis(3-aminopropyl)amino)ethyl)-phosphonate) hexahydrochloride] | >100 | 128 | > 128 | > 128 | 4 | > 128 | 8 | 16 | > 128 | > 128 | > 128 | 128 |  |

Source: US12540148B2, “Lipophosphonoxins, their preparation and use” (USTAV ORGANICKE CHEMIE A BIOCHEMIE AV CR, V. V. I., priority 2019, dated 2026)
